Ends that are not written are not given here.

The first assay concerns the target HLA-A*02:01 molecule (UniProt P01899+P04439, D140Y/D185E/D98H/E176V/G131W/I119V/I121R/I166T/N151K/N90K/Q86G/Q94H/R138H/R169H). Briefly: cell-based. Format: binding, human.
Settings: not given
Take “GILFGVFTL [FMP58-66, reference compound]”: the midpoint of the response, the EC50, lay at 2.3 µM.

The same assay, now with this note: SD.
ILFTRFFYV [pp1a-2332] showed an EC50 of 96.5 ± 14 µM. Sequence CLHVVGPNV [pp1a-1114] registered an EC50 of 62.9 ± 2.3 µM. Same read-out and setting: in the case of TLGVYDYLV [pp1a-3807] it was 61.7 ± 8.7 µM; in that of SMWALIISV [pp1a-3732], 8.9 ± 0.4 µM; in that of RIMTWLDMV [pp1a-3662], 76.5 ± 7.1 µM. On the same count and under the same terms, then ILTSLLVLV [pp1a-3587], with 8.3 ± 0.9 µM.

Sequence TLGVLVPHV [pp1a-103] returned an EC50 of 1.3 ± 0.2 µM.

Take QLFFSYFAV [pp1a-2348]: the response was half-maximal at 146 ± 19.7 µM (EC50). The same measure, in the same setting: in the case of MLFTMLRKL [pp1a-4032] it was 166 ± 21.7 µM; in that of TLSEQLDFI [pp1a-214], 2 ± 0.2 µM; in that of TLMNVLTLV [pp1a-3710], 2 ± 0.4 µM.

In turn, FLRDGWEIV [pp1a-641] yielded an EC50 of 0.9 ± 0.1 µM. The same measure, in the same setting: in the case of LLFLMSFTV [pp1a-3083] it was 39.4 ± 0.9 µM; in that of VLLSMQGAV [pp1a-3917], 112 ± 7.2 µM; in that of ALNLGETFV [pp1a-702], 40.7 ± 2.8 µM. Same read-out and setting: in the case of MLAKALRKV [pp1a-1312] it was 95.2 ± 0.7 µM; in that of SLPGVFCGV [pp1a-3013], 3.1 ± 0.2 µM. On the same count and under the same terms, in the case of WLMWLIINL [pp1a-2363] it was 103 ± 6.4 µM. For CLLNRYFRL [pp1a-3798], the EC50 was determined as 81.6 ± 20.2 µM. On the same count and under the same terms, then YLASGGQPI [pp1a-4283], with 39.8 ± 6.2 µM. On the same count and under the same terms, in the case of VLSEARQHL [pp1a-38] it was 76.8 ± 6.8 µM; in that of KLMPVCVET [pp1a-1387], 174 ± 33.5 µM. On the same count and under the same terms, in the case of YLATALLTL [pp1a-1675] it was 8.4 ± 0.2 µM; in that of YMPYFFTLL [pp1a-2168], 99 ± 2.4 µM; in that of FLNGSCGSV [pp1a-3403], 18.7 ± 3.2 µM. FLALCADSI [pp1a-685] displayed an EC50 of 10.2 ± 0.5 µM. The sequence GLVEVEKGV [pp1a-52] had an EC50 of 14.5 ± 4.9 µM. In the case of AIFYLITPV [pp1a-2785], the EC50 came to 5.1 ± 1.6 µM.

Sequence VINGDRWFL [pp1a-3475] registered an EC50 of 85 ± 5.4 µM. For the sequence LLLTILTSL [pp1a-3583], the EC50 was 63.8 ± 3.1 µM. The same measure, in the same setting: in the case of IVAGGIVAI [pp1a-3047] it was 50.5 ± 2.5 µM. The same measure, in the same setting: then FLARGIVFM [pp1a-3753], with 71.2 ± 12.9 µM.

Take YLTNDVSFL [pp1a-3115]: the EC50 is 4.8 ± 0.3 µM. As for SMQNCVLKL [pp1a-3344], the EC50 was 105 ± 2.2 µM. The sequence YLEGSVRVV [pp1a-2968] displayed an EC50 of 7.5 ± 0.1 µM.

The sequence KLWAQCVQL [pp1a-3886] gave an EC50 of 27.2 ± 9.4 µM. In turn, ILGTVSWNL [pp1a-1367] had an EC50 of 123 ± 11.3 µM. GLNDNLLEI [pp1a-445] returned an EC50 of 6 ± 0.2 µM.

For the sequence KTLQPVSEL [pp1a-881], a half-maximal response (EC50) required 162 ± 28.3 µM.

Regarding TVYEKLKPV [pp1a-619], the EC50 amounted to 5.6 ± 0.7 µM.

VMAYITGGV [pp1a-597] showed an EC50 of 9.5 ± 0.9 µM. For the sequence SLINTLNDL [pp1a-1433], the EC50 came out at 123 ± 11 µM. Still for that read-out and setting: in the case of YLNSTNVTI [pp1a-2270] it was 8.9 ± 0.3 µM; in that of QLMCQPILL [pp1a-2563], 11.1 ± 1.8 µM. For NLAKHCLHV [pp1a-1109], the EC50 came out at 38.5 ± 8.2 µM. Still for that read-out and setting: in the case of FITESKPSV [pp1a-1214] it was 122 ± 31.7 µM.

As for SLIYSTAAL [pp1a-2242], it took 134 ± 7.6 µM to reach a half-maximal effect (EC50). SLRVCVDTV [pp1a-1161] had an EC50 of 85.7 ± 1.9 µM. Still for that read-out and setting: in the case of QLSLPVLQV [pp1a-15] it was 79.4 ± 4.4 µM; in that of VLVPHVGEI [pp1a-106], 76 ± 2 µM; in that of WMVMFTPLV [pp1a-3128], 9.8 ± 1.1 µM.

LMWLIINLV [pp1a-2364] returned an EC50 of 159 ± 42.8 µM.

The sequence FLAHIQWMV [pp1a-3122] showed an EC50 of 6.9 ± 0.4 µM. Same read-out and setting: then ALLSDLQDL [pp1a-4183], with 42.4 ± 6.1 µM; and IIWFLLLSV [pp1a-2230], with 177 ± 6.3 µM; and VLLSVLQQL [pp1a-3871], with 44.9 ± 6 µM. Same read-out and setting: in the case of YITGGVVQL [pp1a-600] it was 48.5 ± 7.9 µM; in that of FLLNKEMYL [pp1a-3183], 12.9 ± 6.8 µM; in that of FLGRYMSAL [pp1a-1642], 124 ± 1.9 µM.

With VMVELVAEL [pp1a-84], the concentration giving a half-maximal response (EC50) stood at 6.8 ± 0.3 µM. Same read-out and setting: in the case of KLIEYTDFA [pp1a-2901] it was 126 ± 2.5 µM; in that of KLNEEIAII [pp1a-468], 56.2 ± 4.8 µM; in that of ILLLDQALV [pp1a-2569], 9.6 ± 1.5 µM.

As a reminder, the EC50 is the concentration at which the effect is half-maximal. A lower EC50 goes with a more potent agent.

The record behind these values is paper PMC8092843 (Journal of Virology, 2021).
